Details of data set [1]: method as in earlier work. The settings on record: standard reference; H2O:DMSO (55:45); ref 6 (SI); cited from earlier work.
Data set [2] concerns PC-3 prostate cancer cells. It is filed as cell-based, human. The settings on record: PC-3; 4 h incubation, kept in the dark 1 h; MTT after 48 h; read-out: IC50 PC-3 Dark. As to the method:
(§1) The effect of Ir-H, Ir-Me, Ru-H, and Ru-Me on cell viability was evaluated in the A549 lung cancer and PC-3 prostate cancer cell lines by MTT assays. PC-3 cells were specifically chosen due to their high expression levels of GRPR on their surface, allowing for further evaluation of the activity of the BN3-derived metallopeptides Ir-BN and Ru-BN.[38],[51] In contrast, A549 cells express low levels of GRPR.[52] MRC-5 fibroblasts were used as a nonmalignant cell model.[53]Table 3 reports the half maximal inhibitory concentration (IC50) values obtained after treating the cells either under dark conditions or upon exposure to blue light at a dose of 24.1 J cm^–2. The photocytotoxicity index (PI), defined as the IC50,dark/IC50,light, is provided for each compound.
(§2) Stock solutions of the complexes and metallopeptides were initially prepared at a concentration of 5 mM in DMSO and then diluted in sterile distilled water to achieve a final concentration of 1 mM, with a resulting DMSO concentration of 20% v/v. Cells were seeded into 96-well plates at a density of 2500 cells/well for A549, 3500 cells/well for PC-3, and 5500 cells/well for MRC-5. Following 24 h of incubation for attachment, cells were treated in triplicate with freshly prepared working solutions of the compounds in the culture medium at concentrations ranging from 0.001 to 100 μM. The maximum DMSO concentration in the working solutions was 2% (v/v). The working concentrations for each compound were adjusted based on their cytotoxicity. Following a 4 h incubation period to allow internalization of the compounds into the cells, the plates were kept in dark conditions or exposed to blue (460 nm) or red (655 nm) light for 1 h using an LED system (LuxLight), providing a total dose of 24.1 J cm^–2. All plates were incubated in the dark for an additional 43 h. Cells were then washed with phosphate-buffered saline (PBS), and 100 μL of fresh culture medium containing 10% of 3-[4,5-dimethylthiazol-2-yl]-2,5 diphenyl tetrazolium bromide (MTT) solution (0.5 mg/mL) (Sigma- Aldrich) was added to each well. After a 2 h incubation period, the formazan crystals were dissolved in DMSO, and the absorbance was measured at 570 nm using a Multiscan Plate Reader (Synergy 4, Biotek, Winooski, USA). The concentration causing a 50% reduction in cell viability (IC50) was determined for each compound with the Gen5 software (BioTek). At least three independent experiments were conducted for each compound.

Data set [3] has as its system A549 lung cancer cells. Format: cell-based, human. The settings on record: A549; 4 h incubation, kept in the dark 1 h; MTT after 48 h; read-out: IC50 A549 Dark. As to the method:
as §1, §2

Data set [4] concerns MRC-5 fibroblasts. It is filed as cell-based, human. The settings on record: MRC-5; 4 h incubation, kept in the dark 1 h; MTT after 48 h; read-out: IC50 MRC-5 Dark. As to the method: as §1, §2

Usually IC50 stands for the point on the concentration scale where inhibition reaches its midpoint.

`O=C([O-])c1c(Cl)c(Cl)c(Cl)c(Cl)c1-c1c2cc(I)c(=O)c(I)c-2oc2c(I)c([O-])c(I)cc12.[Na+].[Na+]` [rose bengal]: the “singlet oxygen quantum yield (ΦΔ)” value in data set [1] is on record as 0.75.

For the molecule `N.N.[Cl][Pt][Cl]` [Cisplatin, reference compound], the figures for the IC50 in data set [2], in data set [3] and in data set [4] were 5.55 ± 0.97 µM, 5.99 ± 1.2 µM and 5.34 ± 0.38 µM, respectively.

These data come from article PMC11483813, “Bombesin-Targeted Delivery of β-Carboline-Based Ir(III) and Ru(II) Photosensitizers for a Selective Photodynamic Therapy of Prostate Cancer” (Inorganic Chemistry, 2024).
